{
  "source": "patent US10081615B2",
  "about": "“Sulfamate derivative compounds for use in treating or alleviating pain” (Bio-Pharm Solutions Co., Ltd., priority 2013, dated 2018)",
  "key": {"[1]": {"test_system": "Post operation-induced pain model", "assay": "Antiallodynic activity on post operative pain-induced pain model (von Frey)", "type": "in vivo, Sprague-Dawley rats", "conditions": "0.5 h; for ED50: ip", "procedure": "Male Sprague-Dawley rats (Orient Bio, Korea), 300-320 g, total of 201 rats were used (details in Table 7). Rats were habituated at least 3 days before surgery and free access to food and water (room temperature and humidity were maintained at […] and 50±10%, respectively). The process of performing the post-operation model's surgery was adapted from Brennan et al (1996). At first, rats with allodynia (threshold valueless than 8 g) were excluded in Pre-von Frey Test. During the post-operation surgery, rats were anesthetized under gaseous anesthesia with 2% isoflurane. Rats were laid face down on a plate fixed at 37° C. to prevent against hypothermia. The ipsilateral plantar aspect (left side) of the hind paw was prepared in a sterile manner with a 10% povidone-iodine solution. A longitudinal incision (1 cm) (FIG. 2-A) was made with a blade (number 11) through the skin and fascia of the ipsilateral plantar aspect of the foot, starting from 0.5 cm below the proximal edge of the heel and extending toward the toes. Rats' plantar muscles were elevated and incised longitudinally (FIG. 2-B). After hemostasis with gentle pressure, the skin was opposed with 2 mattress sutures (4-0 Dafilon) (FIG. 2-C). The wound site was covered with a 10% povidone-iodine solution gauze and injected with antibiotics (gentamicin, 8 mg/kg, ip). The sutures were removed under halothane anesthesia approximately 30 hours later, at the end of post-operative day 1.\nAfter 2-3 days of recovery, rats with a good response (threshold less than 4 g) in Pre-von Frey Test were selected. According to this response, we made three groups with each group having equal average responses: Group 1, post-operation and drug treated; Group 2, post-operation and vehicle treated; Group 3, no post-operation and vehicle treated. In this study, Group 3 was the sham control (positive) group. The group 2 was used to check for possible failures to generate post-operative pain.\nFor efficacy measure, the threshold value of group C was assigned 100% efficacy, and the percentage of the threshold values of group A compared to group C (for each different dose level) were calculated as the efficacies. Base on these efficacy values, ED50 was calculated using log fitting. If there was no clear ED50, then we marked the percent efficacy at the highest tested dose or larger than highest tested dose.\nFor pain threshold test, all animals were placed in a stainless steel meshed chamber and habituated for 30 min in the test box. The tactile sensitivity of the ipsilateral hind paw was measured using the up-and-down method (Dixon, 1980) with seven von Frey monofilaments (0.4, 1, 2, 4, 6, 8, and 15 g) using 3 trials. The 50% paw withdrawal threshold for each paw was calculated using the following formula: [Xth] log=[vFr] log+ky, where [vFr] is the force of the last von Frey filament used, k=0.2249 which is the average interval (in log units) between the von Frey monofilaments, y which is a value that depends upon the pattern of withdrawal responses, and Xth which is the threshold value (Dixon, 1980).\nDrugs were dissolved 30% PEG400 for example 60, 0.9% saline for Pregabalin, 20% Tween80 for Tylenol, 0.9% saline for Topiramate. These vehicles were selected depending on the compound's solubility. Intraperitoneal injection (5 μl/g) was done for all drugs.\nThe relative values compared to the sham (% control) were calculated and shown in Table 8, which show an antiallodynic effect of the compound of examples on Post operation-induced pain model in rats."}, "CFA-induced pain model": {"test_system": "CFA-induced pain model", "assay": "Antiallodynic activity on Complete Freund's Adjuvant (CFA)-induced inflammatory pain model (von Frey)", "type": "in vivo, Sprague-Dawley rats", "conditions": "ip"}, "[2]": {"conditions": "Rattus norvegicus, read-out: Post Operation: ED50 mg/kg"}, "[3]": {"conditions": "Rattus norvegicus, 0.5 h, read-out: CFA model: ED50 mg/kg"}},
  "note": "Read-outs that look alike come from different tables or passages of the source.",
  "data": [
    {"smiles": "CC1(C)Oc2ccccc2C(COS([NH-])(=O)=O)O1.[Na+]", "note": "(stereo not shown) [Example 60, Sodium (((2,2-dimethyl-4H-benzo[d][1,3]dioxin-4-yl)methoxy)sulfonyl)amide Trihydrate]", "values": [
      {"measurement": "ED50", "setting": "[1]; [2]", "value": 18.9, "unit": "mg/kg"},
      {"measurement": "ED50", "setting": "CFA-induced pain model; Rattus norvegicus, 1 h, read-out: CFA model: ED50 mg/kg", "value": 25, "unit": "mg/kg"}
    ]},
    {"smiles": "CC1(C)Oc2ccccc2[C@@H](COS(N)(=O)=O)O1", "note": "[Example 2, ((S)-2,2-dimethyl-4H-benzo[d][1,3]dioxin-4-yl)methyl sulfamate]", "values": [
      {"measurement": "ED50", "setting": "[1]; rat, intraperitoneal, read-out: Post Operation: ED50", "value": 14.9, "unit": "mg/kg"},
      {"measurement": "ED50", "setting": "CFA-induced pain model; rat, intraperitoneal, 0.5 h, read-out: CFA model: ED50", "value": 18.8, "unit": "mg/kg"}
    ]},
    {"smiles": "CC1(C)Oc2ccccc2[C@H](COS([NH-])(=O)=O)O1.[Na+]", "note": "[Example 58, Sodium (R)-(((2,2-dimethyl-4H-benzo[d][1,3]dioxin-4-yl)methoxy)sulfonyl)amide Trihydrate]", "values": [
      {"measurement": "ED50", "setting": "[1]; [2]", "value": 19.4, "unit": "mg/kg"},
      {"measurement": "ED50", "setting": "CFA-induced pain model; [3]", "value": 23.3, "unit": "mg/kg"}
    ]},
    {"smiles": "CC1(C)Oc2ccccc2[C@H](COS([NH-])(=O)=O)O1.[K+]", "note": "[Example 70, Potassium (R)-(((2,2-dimethyl-4H-benzo[d][1,3]dioxin-4-yl)methoxy)sulfonyl)amide]", "values": [
      {"measurement": "Post Operation: effect (%) compared to control", "setting": "[1]; rat, intraperitoneal, 18.9 mg/kg administered", "value": "(22.0%, 0.5 h)"},
      {"measurement": "response vs control in vivo at 25 mg/kg", "setting": "CFA-induced pain model; Rattus norvegicus, 0.5 h, read-out: CFA model: effect (%) compared to control", "value": 10.5, "unit": "%"}
    ]},
    {"smiles": "[NH-]S(=O)(=O)OC[C@H]1OC2(CCCC2)Oc2ccccc21.[Na+]", "note": "[Example 65, Sodium (S)-(((4H-spiro[benzo[d][1,3]dioxine-2,1′-cyclopentan]-4-yl)methoxy)sulfonyl)amide]", "values": [
      {"measurement": "ED50", "setting": "[1]; [2]", "value": 31.8, "unit": "mg/kg"},
      {"measurement": "ED50", "setting": "CFA-induced pain model; [3]", "value": 89.1, "unit": "mg/kg"}
    ]}
  ]
}
